Assay results from US20090253743A1, “COMPOSITIONS OF TOLPERISONE” (Avigen, Inc., priority 2007, published 2009).
Structures can show the parent of a compound that is named as a salt. One block for each compound: values may come before it.

Columns and labels:
Type in all cases: physicochemical
[1] = HPLC-MS/MS analysis of 4-MMPPO content in tolperisone compositions; details: drug lot (API) used in the tablet
Experimental: Tolperisone compositions were obtained from various commercial sources and analyzed for 4-MMPPO content by HPLC-MS/MS.
All samples used in the analytical sequence were prepared for analysis as follows. Sample were homogenized if necessary (e.g., tablets) and weighed. For each tolperisone sample, approximately 20 mg of sample was added into a 20 mL flask. 20 mL of 50 mM HCl in MeOH was added to the flask, which was then placed in an ultrasonic bath for about 5 minutes. The contents of the flask were mixed on a vortexer for about 20 seconds. In instances in which the tolperisone sample had initially been in tablet form, the solution was then centrifuged at 4000 rpm for 2 minutes. 200 μL of the sample was then transferred into a small conical centrifuge vial. 20 μL of an internal standard solution containing deuterated 4-MMPPO, 200 μL of buffer at pH 1, and 0.4 mL of diisopropyl ether (DIPE) were added to the vial. The sample was then extracted by vortexing with a DVX-2500 multi-tube vortexer (2100 rpm) for about 2 minutes (cycle: 5 seconds run, 1 second pause time) and centrifugation (phase separation) at 4000 rpm for 2 minutes. 150 μL of 50 mM HCl in MeOH/DMSO (½) was added into empty designated conical autosampler vials. After centrifugation, 100 μL of supernatant was transferred into these conical autosampler vials. The vials were crimped and vortexed with a DVX-2500 multi-tube vortexer (2100 rpm) for about 1 minute. 7 μL of the prepared sample was then injected immediately into an HPLC-MS/MS system or the sample was stored at a temperature below −20° C. until analysis. The chromatography conditions and mass spectrometry parameters used for analysis of 4-MMPPO are shown below in Tables 1 and 2, respectively.
Lots of tolperisone were obtained from manufacturers A and B, as were the final manufactured tablet formulations. Analyses were carried out as described in Example 1 to determine 4-MMPPO levels in both drug lots and final manufactured formulations.

[2] = Stability studies of 4-MMPPO / tolperisone HCl solutions (liquid-liquid extraction, HPLC-MS/MS)
Experimental: The analytical method employed utilized liquid-liquid extraction and HPLC separation on a C18-column with MS/MS detection and internal standardization.
Test solution: 50 mM HCl in methanol containing 40 mg per 200 μL of tolperisone HCl (containing 4-MMPPO as an impurity)
Samples were prepared for analysis generally as follows. 200 μL of IS working solution was added to the dry weighed bulk material or to the 20 μL aliquots. The samples were vortexed, followed by addition of 200 μL of buffer solution. 0.40 mL of DIPE (diisopropyl ether) was then added, followed by extraction via vortexing, and phase separation via centrifugation. About 250 μL of supernatant solution was then transferred into each 5 mL conical centrifuge vial, followed by addition of 200 μL of buffer solution. The major portion of tolperisone was then re-extracted into the watery phase by vortexing, followed by phase separation by centrifugation. 50 μL of centrifugation supernatant was then transferred to each auto sample vial containing injection solution (75 μL of 50 mM HCl in DMSO/MeOH 2/1). Samples were capped (crimped) and vortexed, followed by injection of 7 μL sample into the HPLC-MS/MS system for analysis.
During stability studies for a calibration range from 1-200 ppm, various solutions: a) 4-MMPPO in tolperisone free solution (“reference solution”), b) tolperisone HCl solution (default concentration of 10 mg/mL) without spiking of any 4-MMPPO (“test solution”), and c) tolperisone HCl solution (default concentration of 10 mg/mL) spiked with 4-MMPPO (“spiked test solution”) were assessed under the following storage conditions: (i) for three freeze thaw cycles prior to sample preparation for analysis, (ii) at bench top temperature for 4 hours, and (iii) at auto sampler conditions for 12 hours after sample preparation for analysis. […] Additionally, 4-MMPPO was stable at −70° C. for 2 months prior to sample preparation for analysis.
During stability studies for a concentration range from 0.05-25 ppm, various solutions: a) 4-MMPPO in tolperisone free solution (“reference solution”), b) tolperisone HCl solution (default concentration of 200 mg/mL) without spiking of any 4-MMPPO (“test solution”), and c) tolperisone HCl solution (default concentration of 200 mg/mL) spiked with 4-MMPPO (“spiked test solution”) were assessed under the following storage conditions: (i) at bench top temperature for 2 hours prior to sample preparation for analysis, and (ii) at auto sampler conditions for 14 hours after sample preparation for analysis.

[3] = HPLC-MS/MS analysis of 4-MMPPO content in tolperisone compositions
[4] = calibration range 1-200 ppm, tolperisone HCl 10 mg/mL, each of: three freeze thaw cycles, bench top 4 hours, auto sampler 12 hours
[5] = range 0.05-25 ppm, tolperisone HCl 200 mg/mL, auto sampler conditions 14 hours after sample preparation

SMILES: Cc1ccc(C(=O)C(C)CN2CCCCC2)cc1 (centres unmarked) [SB0068, tolperisone]
[4-MMPPO in Drug Lot or API], ppm [1]: 39 ppm

SMILES: Cc1ccc(C(=O)C(C)CN2CCCCC2)cc1 (centres unmarked) [SD0108, tolperisone]
[4-MMPPO in Drug Lot or API], ppm [1]: 14 ppm

SMILES: Cc1ccc(C(=O)C(C)CN2CCCCC2)cc1 (centres unmarked) [SE0107, tolperisone]
[4-MMPPO in Drug Lot or API], ppm [1]: 20 ppm

SMILES: C=C(C)C(=O)c1ccc(C)cc1 [Sample 4-MMPPO, 2-methyl-1-(4-methylphenyl)-propenone]
4-MMPPO concentration on storage of solution [2, 4]: constant 4-MMPPO concentration
4-MMPPO concentration on storage of solution [2, 5]: constant 4-MMPPO concentration
stability prior to sample preparation ([2]; −70° C. for 2 months): stable

Next, values leading:

[4-MMPPO in Drug Lot or API], ppm [1]: 22 ppm
SMILES: Cc1ccc(C(=O)C(C)CN2CCCCC2)cc1 (centres unmarked) [SF0191, tolperisone]

[4-MMPPO in Drug Lot or API], ppm [1]: 21 ppm
[4-MMPPO in Drug Lot or API], ppm ([1]; listed as SF0192): 21 ppm
SMILES: Cc1ccc(C(=O)C(C)CN2CCCCC2)cc1 (centres unmarked) [SFO192, tolperisone]

level of 4-MMPPO ([3]; recrystallized, washed with MTBE saturated with citric acid): below 1 ppm
4-MMPPO concentration on storage of solution [2, 4]: slight increase
4-MMPPO concentration on storage of solution [2, 5]: constant 4-MMPPO concentration
4-MMPPO concentration on storage of solution ([2]; range 0.05-25 ppm, tolperisone HCl 200 mg/mL, bench top temperature 2 hours prior to sample preparation): slight increase
SMILES: Cc1ccc(C(=O)C(C)CN2CCCCC2)cc1 (centres unmarked) [tolperisone HCl, tolperisone hydrochloride]

4-MMPPO in recrystallized tolperisone ([3]; Example 2, single standard recrystallization from 2-butanone/isopropanol, dried at 45-85° C.): 0.14 % by weight
4-MMPPO in recrystallized tolperisone ([3]; Example 2, subsequent production batches): < 0.05%
4-MMPPO levels in the final recrystallized tolperisone product ([3]; Example 5, 1% (v/v) concentrated aqueous HCl added to the recrystallization mixture): below 6.6 ppm
stability during recrystallization ([3]; in the presence of acid): enhanced stability
SMILES: Cc1ccc(C(=O)C(C)CN2CCCCC2)cc1 (centres unmarked) [tolperisone, 2-methyl-1-(4-methylphenyl)-3-(-piperidinyl)-1-propanone]
